Measured values: patent US10449221B2, “Differentiation of stem cells into thyroid tissue” (TRUSTEES OF BOSTON UNIVERSITY, priority 2015, dated 2019)

Legend:
hypothyroid mice = assay: TSH response test; format: in vivo, mouse; conditions: T3 4 μg per 100 g body weight i.p. daily for 4 days; all groups; data not shown
Description: To suppress endogenous production of T4 and TSH, T3 (4 μg per 100 g body weight (BW); Sigma T6397) was given daily by intraperitoneal injection for 4 days. 15 hours after the last injection, blood was taken from the submandibular vein to measure T4 and TSH after which a single injection of highly purified bTSH (Los Angeles Biomedical Research Institute, National Hormone and Peptide Program. Torrance, Calif.) at 30 mU per 100 g BW was given. 3 hours later blood samples were taken to assess the increase of total T4. Five mice per group (positive control group, Sham, and D30 ESCs recipients) were included in the experiment.

[1] = test system: ESC-derived definitive endoderm; assay: Nkx2-1+ endoderm induction from ESC-derived endoderm, specification media day 6-14, flow cytometry on day 14; format: cell-based, mouse; conditions: sequential withdrawal of each individual factor from the WFKBE+2 cocktail
Description: Definitive endoderm induction was performed in complete serum-free differentiation medium (cSFDM) consisting of 75% IMDM (Invitrogen 12440) and 25% Ham's Modified F12 medium (Cellgro 10-080-CV) supplemented with N2 and B27+RA (Invitrogen 17502-048 and 17504-44), 0.05% BSA (Invitrogen 15260-037), […] L-glutamine (Invitrogen 25030-081), 0.05 mg/ml ascorbic acid (Sigma A4544) and 4.5×10^-4M MTG (Sigma M6145) as previously described (Gouon-Evans et al., 2006, Longmire et al., 2012). Undifferentiated ESCs were trypsinized to form a single cell suspension and plated onto Petri dishes (500,000 cells/10 cm dish) resulting in the formation of embryoid bodies (EBs) over 60 hours. EBs were dissociated by trypsinization (0.05%, 1 min, 37° C.) and plated as single cells into cSFDM supplemented with 50 ng/ml Activin A (R&D systems 338-AC) for an additional 60 hours. For Anteriorization of endoderm, on day 5 (120 total hours of differentiation) EBs were plated onto p100 Petri dishes in Nog/SB media: cSFDM supplemented with 100 ng/ml mNoggin (R&D 1967-NG) and 10 μM SB431542 (Sigma S4317) as previously described (Longmire et al., 2012). For Nkx2-1+ endoderm induction, EBs were plated on gelatin coated 6 well plates at the equivalent density of 200,000 cells/well in Specification media: cSFDM supplemented as stated in the text with 100 ng/ml mWnt3a (R&D 1324-WN), 10 ng/ml hFGF10 (R&D 345-FG), 10 ng/ml mKGF (R&D 5028-KG), 10 ng/ml mBMP4 (R&D 5020-BP), 20 ng/ml hEGF (R&D 236-EG), 250 ng/ml mFGF2 (R&D 3139-FB) and 100 ng/ml Heparin Sodium Salt (Sigma […]2-1mCherry+ cells, or the populations otherwise indicated in the text were sorted using MoFlo or […] II SORP high speed cell sorters and replated onto gelatin-coated 24 well plates on day 12-14 at a density of 5×10^4 cells/well. Where indicated in the text, small molecule inhibitors were dissolved in DMSO according to manufacturer's instructions and added to the culture media from day 6 to 14 at the following working concentrations: Dorsomorphin 4 μM (Sigma P5499), PD98059 20 μM, SB203580 10 μM (both from Cell Signaling Technology, PHZ1164 and 5633), and LY294002 […] (Promega V1201).

[2] = test system: ESC-derived Nkx2-1+ cells; assay: Thyroid marker mRNA by real time RT-PCR on Day 26 after outgrowth of day 14 sorted Nkx2-1+ cells; format: cell-based, mouse; conditions: growth factors in specification media day 6 to 14; sorted day 14, replated until day 26
Description: For Anteriorization of endoderm, on day 5 (120 total hours of differentiation) EBs were plated onto p100 Petri dishes in Nog/SB media: cSFDM supplemented with 100 ng/ml mNoggin (R&D 1967-NG) and 10 μM SB431542 (Sigma S4317) as previously described (Longmire et al., 2012). For Nkx2-1+ endoderm induction, EBs were plated on gelatin coated 6 well plates at the equivalent density of 200,000 cells/well in Specification media: cSFDM supplemented as stated in the text with 100 ng/ml mWnt3a (R&D 1324-WN), 10 ng/ml hFGF10 (R&D 345-FG), 10 ng/ml mKGF (R&D 5028-KG), 10 ng/ml mBMP4 (R&D 5020-BP), 20 ng/ml hEGF (R&D 236-EG), 250 ng/ml mFGF2 (R&D 3139-FB) and 100 ng/ml Heparin Sodium Salt (Sigma […]2-1mCherry+ cells, or the populations otherwise indicated in the text were sorted using MoFlo or […] II SORP high speed cell sorters and replated onto gelatin-coated 24 well plates on day 12-14 at a density of 5×10^4 cells/well. […] Relative gene expression, normalized to 18S control, was calculated as fold change in 18S-normalized gene expression, over baseline, using the 2^(-ΔΔCT) method. […]

[3] = test system: Nkx2-1GFP+; Pax8tdTomato trace+ iPSC-derived cells; assay: Lineage specification of bifluorescent reporter iPSC line by day 14; format: cell-based, mouse; conditions: factor withdrawn or removed from the Nkx2-1 induction media, data not shown

Q: For `N[C@@H](Cc1cc(I)c(Oc2ccc(O)c(I)c2)c(I)c1)C(=O)O` [T3, Triiodothyronine], which “endogenous TSH and T4 after exogenous T3” value (hypothyroid mice) is on record?
A: TSH suppression and abrogated T4 secretion

Q: Which results are given for “Wingless-Type MMTV Integration Site Family protein, member 3A [Wnt3a]”?
A: Nkx2-1+ endodermal induction efficiency [1]: dispensable for Nkx2-1 induction efficiency; thyroid competence, thyroid marker mRNA on D26 [2]: does not alter thyroid lineage specification; efficiency of lineage specification, percent yield of GFP+/tdTomato+ cells [3]: no significant impact
